Patent US9174973B2, “Crystalline forms of azilsartan and preparation and uses thereof” (SUNSHINE LAKE PHARMA CO., LTD., priority 2011, dated 2015)

Assay: solubility test of crystalline forms in 0.1M HCl (Chinese Pharmacopoeia 2010)
Assay type: physicochemical
Details: 300 mg sample in 6 mL 0.1M HCl, 25° C.±2° C., 30 minutes, observed with eyes
Protocol: The solubility of crystalline forms A, B, C and D was measured in accordance with the solubility test described in “Chinese Pharmacopoeia 2010”, Topic and Requirement 15. A crystalline form of azilsartan was grinded into powder. The powder (300 mg) was added to 6 ml of 0.1M HCl as the solvent at 25° C.±2° C. […] The total test time was 30 minutes. The solid was deemed as dissolved when no solid was detected in the mixture by human eyes. The solubility data of crystalline forms A, B, C and D of azilsartan are as shown below.

Result (solubility): dissolved
SMILES: CCOc1nc2cccc(C(=O)O)c2n1Cc1ccc(-c2ccccc2-c2noc(=O)[nH]2)cc1 [Form D]
